This passage reports IC50 results from EP0233461B2, “4,5,6-Substituted-2-pyrimidinamines” (AMERICAN CYANAMID COMPANY, priority 1986, dated 1987).

The structures appear in SMILES notation. Where a name gives a salt, the structure may show the parent alone.

The test system of the first test is human basophils. Kind of test: Inhibition of histamine release from immunologically stimulated human basophils. It is filed as cell-based. Conditions: Homo sapiens, concentration causing 50% inhibition of histamine release, by linear regression; active if IC50 ≦ 48 µM; read-out: IC50. As to the method:
The blood is allowed to sediment at room temperature in two 50 ml polycarbonate centrifuge tubes until a sharp interface develops between the red cells and plasma (60-90 minutes). The plasma (top) layer from each tube is withdrawn by pipet and transferred to respective 50 ml polycarbonate tubes. The plasma is centrifuged for 8 minutes at 110X G at 4°C. The supernatant is carefully poured off as completely as possible and the cell button is resuspended in 2-3 ml of Tris-A buffer using a siliconized Pasteur pipet. The resuspension is accomplished by drawing the liquid gently in an out of the pipet, with the tip below the liquid until an even suspension of cells is obtained. Sufficient Tris-A buffer is then added to bring the volume in the tube to about 45 ml and the tube is centrifuged at 110X G for 8 minutes at 4°C. The supernatant is poured off and the cell button is resuspended and centrifuged as described above. The supernatant is poured off and the cell button is suspended in 2-3 ml of Tris-ACM buffer to make the final volume sufficient to allow addition to the reaction tubes. Reaction tubes containing anti-IgE or antigens, either alone or with test compound in a total volume of 0.2 ml are prepared and placed in a 37°C bath. The cells are warmed to 37°C and frequently swirled to ensure an even suspension, while 1.0 ml aliquots are added to each reaction tube. The tubes are then incubated for 60 minutes at 37°C, vortexing the tubes gently every 15 minutes to keep the cells evenly suspended. When the reaction is complete, the tubes are centrifuged at 4°C for 10 minutes at 1500 rpm to sediment the cells. […] Blanks and totals are included in each test. The blanks have cells and all reagents except antigen or anti-IgE. The totals contain 0.24 ml of 8% perchloric acid, one ml of cells and 0.2 ml of buffer. All samples are then centrifuged to remove the precipitate protein. […] The automated system consists of the following Technicon Autoanalyzer II components Sampler IV, Dual-Speed Proportioning Pump III, Fluoronephelometer with a narrow pass primary filter 7-60 and a secondary filter 3-74, Recorder, and Digital Printer. The manifold used is the one described by Siraganian vide supra, with the following modifications: the dialyzer is omitted; all pumping tubes pass through a single proportioning pump with large capacity and twice the volume of sample is taken for anaylsis. The automated chemistry consists of the following steps: Extraction from alkaline saline into butanol, back extraction into dilute hydrochloric acid by addition of heptane, reaction of histamine with o-phthaldialdehyde (OPT) at high pH and conversion of the OPT adduct to a stable fluorophore with phosphoric acid. The reaction product is then passed through the fluorometer. The full scale response is adjusted to 50 ng histamine base with a threshold sensitivity of approximately 0.5 ng. The instrument blank (wash) is substracted from the ng histamine of each sample. Then the ng histamine of each sample is divided by the mean of the three totals (cells lysed with perchloric acid) to obtain percent release. Control samples contain antigen but no test compound. Blank (or spontaneous release) samples contain neither antigen nor test compound. The mean of the blanks (three replicates) is subtracted from the percent release for controls and test compounds.
Regarding `NS(=O)(=O)c1ccc(Nc2nccc(-c3ccccn3)n2)cc1` [4-[[4-(2-Pyridinyl)-2-pyrimidinyl]amino]-benzenesulfonamide], the IC50 turned out to be 4.5 µM.

On to `CCOC(=O)c1ccc(Nc2nccc(-c3cccnc3)n2)cc1` [4-[[4-(3-Pyridinyl)-2-pyrimidinyl]amino]-benzoic acid, ethyl ester], for which the IC50 was found to be 12.4 µM.

Consider `O=C(O)c1ccc(Nc2nccc(-c3cccnc3)n2)cc1` [4-[[4-(3-Pyridinyl)-2-pyrimidinyl]amino]benzoic acid], for which the IC50 came to 7.6 µM.

For `Oc1ccc(Nc2nccc(-c3cccnc3)n2)cc1` [4-[[4-(3-Pyridinyl)-2-pyrimidinyl]amino]phenol], the IC50 came to 5.1 µM.

On to `NS(=O)(=O)c1ccc(Nc2nccc(-c3cccnc3)n2)cc1` [4-[[4-(3-pyridinyl)-2-pyrimidinyl]amino]benzenesulfonamide], for which the concentration for half-maximal inhibition (IC50) is 0.2 µM.

On to `Oc1ccc(Nc2nccc(-c3ccncc3)n2)cc1` [4-[[4-(4-Pyridinyl)-2-primidinyl]amino]phenol], for which the IC50 worked out at 3.3 µM.

Consider `COC(=O)c1ccc(Nc2nccc(-c3ccncc3)n2)cc1` [4-[[4-(4-Pyridinyl)-2-pyrimidinyl]amino]benzoic acid, methyl ester], for which the IC50 is 27.5 µM.

`Cc1cc(-c2ccnc(Nc3cccc(N(C)C)c3)n2)c(C)o1` [N'-[4-(2,5-Dimethyl-3-furanyl)-2-pyrimidinyl]-N,N-dimethyl-1,3-benzenediamine]: the IC50 was below 24 µM.

Regarding `Cc1cc(-c2ccnc(Nc3ccc(N(C)C)cc3)n2)c(C)o1` [N'-[4-(2,5-Dimethyl-3-furanyl)-2-pyrimidinyl]-N,N-dimethyl-1,4-benzenediamine], the IC50 turned out to be 4.9 µM.

Consider `CCN(CC)c1ccc(Nc2nccc(-c3cc4ccccc4o3)n2)cc1` [N'-[4-(2-Benzofuranyl)-2-pyrimidinyl]-N,N-diethyl-1,4-benzenediamine], for which the IC50 turned out to be 6.2 µM.

Consider `CN(C)c1ccc(Nc2nccc(-c3cc4ccccc4o3)n2)cc1` [N'-[4-(2-Benzofuranyl)-2-pyrimidinyl]-N,N-dimethyl-1,4-benzenediamine], for which the IC50 was 5.6 µM.

As for `CN(C)c1ccc(Nc2nccc(-c3ccco3)n2)cc1` [N'-[4-(2-Furanyl)-2-pyrimidinyl]-N,N-dimethyl-1,4-benzenediamine], the IC50 was 1.9 µM.

Turning to `Cc1cnc(Nc2ccc(N(C)C)cc2)nc1-c1ccco1` [N'-[4-(2-Furanyl)-5-methyl-2-pyrimidinyl]-N,N-dimethyl-1,4-benzenediamine], the IC50 amounted to 6.1 µM.

On to `CCN(CC)c1ccc(Nc2nccc(-c3ccco3)n2)cc1` [N,N-Diethyl-N'-[4-(2-furanyl)-2-pyrimidinyl]-1,4-benzenediamine], for which the IC50 came to 3.4 µM.

As to `CCN(CC)c1ccc(Nc2nccc(-c3ccccn3)n2)cc1` [N,N-Diethyl-N'-[4-(2-pyridinyl)-2-pyrimidinyl]-1,4-benzenediamine], the IC50 worked out at 10.1 µM.

As for `CCN(CC)c1ccc(Nc2nccc(-c3cccnc3)n2)cc1` [N,N-Diethyl-N'-[4-(3-pyridinyl)-2-pyrimidinyl]-1,4-benzenediamine], the IC50 was 1.7 µM.

Consider `CCN(CC)c1ccc(Nc2nccc(-c3ccncc3)n2)cc1` [N,N-Diethyl-N'-[4-(4-pyridinyl)-2-pyrimidinyl]-1,4-benzenediamine], for which the half-maximal inhibitory concentration (IC50) stood at 1.1 µM.

As to `CCN(CC)c1ccc(Nc2nccc(-c3ccc(C)o3)n2)cc1` [N,N-Diethyl-N'-[4-(5-methyl-2-fur-anyl)-2-pyrimidinyl]-1,4-benzene-diamine], the IC50 amounted to 28 µM.

As for `Cc1cnc(Nc2cccc(N(C)C)c2)nc1-c1ccco1` [N,N-Dimethyl-N'-[4-(2-furanyl)-5-methyl-2-pyrimidinyl]-1,3-benzene-diamine], the IC50 turned out to be 40 µM.

Regarding `CN(C)c1cccc(Nc2nccc(-c3ccccn3)n2)c1` [N,N-Dimethyl-N'-[4-(2-pyridinyl)-2-pyrimidinyl]-1,3-benzenediamine], the IC50 worked out at 0.5 µM.

For the compound `CN(C)c1ccc(Nc2nccc(-c3ccccn3)n2)cc1` [N,N-Dimethyl-N'-[4-(2-pyridinyl)-2-pyrimidinyl]-1,4-benzenediamine, dihydrochloride], the IC50 came out at 4.4 µM.

`CN(C)c1cccc(Nc2nccc(-c3cccs3)n2)c1` [N,N-Dimethyl-N'-[4-(2-thienyl)-2-pyrimidinyl]-1,3-benzenediamine]: the IC50 stood at 2.4 µM.

Take `CN(C)c1ccc(Nc2nccc(-c3cccs3)n2)cc1` [N,N-Dimethyl-N'-[4-(2-thienyl)-2-pyrimidinyl]-1,4-benzenediamine]: the IC50 came to 0.6 µM.

In the case of `Cc1ccsc1-c1ccnc(Nc2ccc(N(C)C)cc2)n1` [N,N-Dimethyl-N'-[4-(3-methyl-2-thienyl)-2-pyrimidinyl]-1,4-benzenediamine], the IC50 worked out at 1.8 µM.

Consider `CN(C)c1cccc(Nc2nccc(-c3cccnc3)n2)c1` [N,N-Dimethyl-N'-[4-(3-pyridinyl)-2-pyrimidinyl]-1,3-benzenediamine], for which the IC50 was determined as 1.7 µM.

Take `CN(C)c1ccc(Nc2nccc(-c3ccsc3)n2)cc1` [N,N-Dimethyl-N'-[4-(3-thienyl)-2-pyrimidinyl]-1,4-benzenediamine]: the IC50 was 2.1 µM.

Regarding `CN(C)c1ccccc1Nc1nccc(-c2ccncc2)n1` [N,N-Dimethyl-N'-[4-(4-pyridinyl)-2-pyrimidinyl]-1,2-benzenediamine, fumarate], the IC50 is 36.2 µM.

Turning to `Cc1ccc(-c2ccnc(Nc3cccc(N(C)C)c3)n2)o1` [N,N-Dimethyl-N'-[4-(5-methyl-2-furanyl)-2-pyrimidinyl]-1,3-benzenediamine], the IC50 came to 1.6 µM.

Still in this test, the particulars now being: concentration causing 50% inhibition of histamine release, by linear regression; active if IC50 ≦ 48 µM; dihydrochloride; read-out: IC50.
In the case of `CN(C)c1cccc(Nc2nccc(-c3ccccn3)n2)c1` [N,N-Dimethyl-N'-[4-(2-pyridinyl)-2-pyrimidinyl]-1,3-benzenediamine, dihydrochloride], the IC50 was 0.5 µM.

As for `CN(C)c1cccc(Nc2nccc(-c3ccncc3)n2)c1` [N,N-Dimethyl-N'-[4-(4-pyridinyl)-2-pyrimidin-yl]-1,3-benzenediamine, dihydrochloride], the IC50 is 0.5 µM.

Staying with this test, now noted: concentration causing 50% inhibition of histamine release, by linear regression; active if IC50 ≦ 48 µM; read-out: IC50.
As to `CN(C)c1ccc(Nc2nccc(-c3cccnc3)n2)cc1` [N,N-Dimethyl-N'-[4-(3-pyridinyl)-2-pyrimidinyl]-1,4-benzenediamine], the IC50 amounted to 3.7 µM.

With `CN(C)c1cccc(Nc2nccc(-c3ccncc3)n2)c1` [N,N-Dimethyl-N'-[4-(4-pyridinyl)-2-pyrimidinyl)]-1,3-benzene] [N,N-Dimethyl-N'-[4-(4-pyridinyl)-2-pyrimidinyl)]-1,3-benzenediamine, sulfate], the IC50 is 1 µM.

Consider `CN(C)c1cccc(Nc2nccc(-c3ccncc3)n2)c1` [N,N-Dimethyl-N'-[4-(4-pyridinyl)-2-pyrimidinyl]-1,3-benzened] [N,N-Dimethyl-N'-[4-(4-pyridinyl)-2-pyrimidinyl]-1,3-benzenediamine], for which the IC50 turned out to be 3.5 µM.

The same test, now with this note: concentration causing 50% inhibition of histamine release, by linear regression; active if IC50 ≦ 48 µM; trihydrochloride; read-out: IC50.
As for `CN(C)c1cccc(Nc2nccc(-c3ccccn3)n2)c1` [N,N-Dimethyl-N'-[4-(2-pyridinyl)-2-pyriziiidin-yl]-1,3-benzenediamine, trihydrochloride], the IC50 amounted to 1 µM.

In the case of `CN(C)c1ccc(Nc2nccc(-c3cccnc3)n2)cc1` [N,N-Dimethyl-N'-[4-(3-pyridinyl)-2-pyrimidinyl]-1,4-benzenediamine, trihydrochloride], the IC50 was 1.5 µM.

Consider `CN(C)c1ccc(Nc2nccc(-c3ccncc3)n2)cc1` [N,N-Dimethyl-N'-[4-(4-pyridinyl)-2-pyrimidinyl]-1,4-benzenediamine, trihydrochloride], for which the IC50 was determined as 0.4 µM.
